According to patent US20110152089A1, “HERBICIDAL COMPOSITIONS COMPRISING FLUFENACET” (Bayer CropScience AG, priority 2009, published 2011):

How the values were obtained:
STEME [1] = assay: Resistant biotypes, PE application, greenhouse (Table 6); type: in vivo, Stellaria media; conditions: g of AS/ha: (A) 90, (B) 300, (C) 140, (A)+(B)+(C) 120 + 600 + 140, iodosulfuron 10; for activity STEME resistant: resistant biotype; for activity STEME sensitive: sensitive biotype
Procedure: (§1) In the standard design of the test, seeds of various broad-leaved weed and weed grass biotypes (origins) were sown in a 8-13 cm diameter pot filled with natural soil of a standard field soil (loamy silt; non-sterile) and covered with a covering soil layer of about 1 cm. The pots were then cultivated in a greenhouse (12-16 h of light, temperature day 20-22° C., night 15-18° C.) until the time of application. The pots were treated on a laboratory track sprayer with spray liquors comprising the compositions according to the invention, mixtures of the prior art or components used individually. Application of the active compounds or active compound combinations formulated as WG, WP, EC or otherwise was carried out at the appropriate growth stages of the plants. The application rate for the spray application was 100-600 l of water/ha. After the treatment, the plants were returned to the greenhouses.
(§2) About 3 weeks after the application, the soil action or/and foliar action was assessed visually according to a scale of 0-100% in comparison to an untreated comparative group: 0%=no noticeable effect compared to the untreated comparative group; 100%=full effect compared to the untreated comparative group.
(§3) (notes: the term “seeds” also includes vegetative propagation forms such as, for example, rhizome pieces; abbreviations used: h light=hours of illumination, g of AS/ha=gram of active substance per hectare, l/ha=liter per hectare, S=sensitive, R=resistant) • 1. Pre-emergence action against weeds: seeds of various broad-leaved weed and weed grass biotypes (origins) were sown in a 8-13 cm diameter pot filled with natural soil of a standard field soil (loamy silt; non-sterile) and covered with a covering soil layer of about 1 cm. The pots were then cultivated in a greenhouse (12-16 h of light, temperature day 20-22° C., night 15-18° C.) until the time of application. The pots were treated at the BBCH stage 00-10 of the seeds/plants on a laboratory track sprayer with spray liquors comprising the compositions according to the invention, mixtures or components used individually, as WG, WP, EC or other formulations. The application rate for the spray application was 100-600 l of water/ha. After the treatment, the plants were returned to the greenhouses and, when required, treated with fertilizer and watered. • 2. Post-emergence action against weeds: seeds of various broad-leaved weed and weed grass biotypes (origins) were sown in a 8-13 cm diameter pot filled with natural soil of a standard field soil (loamy silt; non-sterile) and covered with a covering soil layer of about 1 cm. The pots were then cultivated in a greenhouse (12-16 h of light, temperature day 20-22° C., night 15-18° C.) until the time of application. The pots were treated at various BBCH stages between 11-25 of the seeds/plants, i.e. generally between two to three weeks after the start of the cultivation, on a laboratory track sprayer with spray liquors comprising the compositions according to the invention, mixtures or components used individually, as WG, WP, EC or other formulations. The application rate for the spray application was 100-600 l of water/ha. After the treatment, the plants were returned to the greenhouses and, when required, treated with fertilizer and watered. • 3. Pre-emergence action against weeds with and without incorporation of active compound: seeds of various broad-leaved weed and weed grass biotypes (origins) were sown in a 8-13 cm diameter pot filled with natural soil of a standard field soil (loamy silt; non-sterile). […]

HORVS [2] = assay: PE application vs pre-sowing application, crop selectivity, greenhouse (Table 3); type: in vivo, Hordeum vulgare, summer barley; conditions: g of AS/ha: (A) 90, (B) 300, (C) 140, (A)+(B)+(C) 90 + 300 + 140
Procedure: as §1, §2, §3

MATCH [3] = assay: Different soil pH, PE application, greenhouse (Table 8); type: in vivo, Matricaria chamomilla
Procedure: as §1, §2, §3

POAAN = assay: PO application, greenhouse (Table 2); type: in vivo, Poa annua; conditions: g of AS/ha: (A) 120, (B) 1200, (C) 140, (A)+(B)+(C) 120 + 1200 + 140, visual, about 3 weeks after application
Procedure: as §1, §2
(§4) (notes: the term “seeds” also includes vegetative propagation forms such as, for example, rhizome pieces; abbreviations used: h light=hours of illumination, g of AS/ha=gram of active substance per hectare, l/ha=liter per hectare, S=sensitive, R=resistant) • 1. Pre-emergence action against weeds: seeds of various broad-leaved weed and weed grass biotypes (origins) were sown in a 8-13 cm diameter pot filled with natural soil of a standard field soil (loamy silt; non-sterile) and covered with a covering soil layer of about 1 cm. The pots were then cultivated in a greenhouse (12-16 h of light, temperature day 20-22° C., night 15-18° C.) until the time of application. […]

HORVS [4] = assay: PO application, crop selectivity, greenhouse (Table 2); type: in vivo, Hordeum vulgare, summer barley; conditions: g of AS/ha: (A) 120, (B) 1200, (C) 140, (A)+(B)+(C) 120 + 1200 + 140, visual, about 3 weeks after application
Procedure: as §1, §2, §4

MATCH [5] = assay: PE application with different irrigation, greenhouse (Table 4); type: in vivo, Matricaria chamomilla; conditions: g of AS/ha: (A) 90, (B) 300, (C) 140, (A)+(B)+(C) 90 + 300 + 140
Procedure: as §1, §2, §3

STEME [6] = assay: PE soil application vs incorporation into the soil, greenhouse (Table 1); type: in vivo, Stellaria media; conditions: g of AS/ha: (A) 90, (B) 300, (C) 70, (A)+(B)+(C) 90 + 300 + 70, visual, about 3 weeks after application
Procedure: as §1, §2, §3

HORVS [7] = assay: PE application with different irrigation, crop selectivity, greenhouse (Table 4); type: in vivo, Hordeum vulgare, summer barley; conditions: g of AS/ha: (A) 90, (B) 300, (C) 140, (A)+(B)+(C) 90 + 300 + 140
Procedure: as §1, §2, §3

AVEFA = assay: PE application with different irrigation, greenhouse (Table 4); type: in vivo, Avena fatua; conditions: g of AS/ha: (A) 90, (B) 300, (C) 140, (A)+(B)+(C) 90 + 300 + 140
Procedure: as §1, §2, §3

HORVS [8] = assay: Different sowing depths, PE application, crop selectivity, greenhouse (Table 7); type: in vivo, Hordeum vulgare, summer barley; conditions: g of AS/ha: (A) 90, (B) 300, (C) 140, (A)+(B)+(C) 90 + 300 + 140
Procedure: as §1, §2, §3

HORVS [9] = assay: Activity with different soil types, crop selectivity, greenhouse (Table 5); type: in vivo, Hordeum vulgare, summer barley; conditions: g of AS/ha: (A) 90, (B) 300, (C) 140, (A)+(B)+(C) 90 + 300 + 140
Procedure: as §1, §2, §3

TRZAW = assay: Different soil pH, PE application, crop selectivity, greenhouse (Table 8); type: in vivo, Triticum aestivum, winter wheat
Procedure: as §1, §2, §3

STEME [10] = assay: Activity with different soil types, greenhouse (Table 5); type: in vivo, Stellaria media; conditions: g of AS/ha: (A) 90, (B) 300, (C) 140, (A)+(B)+(C) 90 + 300 + 140
Procedure: as §1, §2, §3

HORVS [11] = assay: Different soil pH, PE application, crop selectivity, greenhouse (Table 8); type: in vivo, Hordeum vulgare, summer barley
Procedure: as §1, §2, §3

VIOAR = assay: Activity with different soil types, greenhouse (Table 5); type: in vivo, Viola arvensis; conditions: g of AS/ha: (A) 90, (B) 300, (C) 140, (A)+(B)+(C) 90 + 300 + 140
Procedure: as §1, §2, §3

HORVS [12] = assay: PE soil application vs incorporation into the soil, crop selectivity, greenhouse (Table 1); type: in vivo, Hordeum vulgare, summer barley; conditions: g of AS/ha: (A) 90, (B) 300, (C) 70, (A)+(B)+(C) 90 + 300 + 70, visual, about 3 weeks after application
Procedure: as §1, §2, §3

[13] = soil pH 7.4, g of AS/ha: (A) 90, (B) 300, (C) 140, (A)+(B)+(C) 90 + 300 + 140
[14] = soil pH 8.4, g of AS/ha: (A) 90, (B) 300, (C) 140, (A)+(B)+(C) 90 + 300 + 140
[15] = IU soil (loamy silt standard field soil)
[16] = IU/EC73 soil (heavy soil, higher organic substance)

COc1nc(C)nc(NC(=O)NS(=O)(=O)c2cc(I)ccc2C(=O)O)n1 [iodosulfuron]
activity STEME resistant (STEME [1]): 40% | activity STEME sensitive (STEME [1]): 90%

CC(C)N(C(=O)COc1nnc(C(F)(F)F)s1)c1ccc(F)cc1 [(A) flufenacet, N-(4-fluorophenyl)-N-(1-methylethyl)-2-[[5-(trifluoromethyl)-1,3,4-thiadiazol-2-yl]oxy]acetamide]
activity HORVS (crop plant) (HORVS [2]; PE application): 20% | activity HORVS (crop plant) (HORVS [2]; application 7 days prior to sowing): 40% | activity MATCH pH 7.4 (MATCH [3]; [13]): 5% | activity MATCH pH 8.4 (MATCH [3]; [14]): 0% | activity POAAN (POAAN): 60% | activity HORVS (crop plant) (HORVS [4]): 40% | activity MATCH (MATCH [5]; irrigation from above): 49% | activity MATCH (MATCH [5]; irrigation from below): 15% | activity STEME (STEME [6]; PE application): 0% | activity STEME (STEME [6]; incorporation into the soil): 20% | activity HORVS (crop plant) (HORVS [7]; irrigation from above): 95% | activity HORVS (crop plant) (HORVS [7]; irrigation from below): 80% | activity STEME resistant (STEME [1]): 0% | activity STEME sensitive (STEME [1]): 0% | activity AVEFA (AVEFA; irrigation from above): 92% | activity AVEFA (AVEFA; irrigation from below): 63% | activity HORVS 5 mm (crop plant) (HORVS [8]; sowing depth 5 mm): 30% | activity HORVS 20 mm (crop plant) (HORVS [8]; sowing depth 20 mm): 20% | activity HORVS IU soil (crop plant) (HORVS [9]; [15]): 10% | activity HORVS IU/EC73 soil (crop plant) (HORVS [9]; [16]): 0% | activity TRZAW pH 7.4 (crop plant) (TRZAW; [13]): 0% | activity TRZAW pH 8.4 (crop plant) (TRZAW; [14]): 20% | activity STEME IU soil (STEME [10]; [15]): 0% | activity STEME IU/EC73 soil (STEME [10]; [16]): 0% | activity HORVS pH 7.4 (crop plant) (HORVS [11]; [13]): 10% | activity HORVS pH 8.4 (crop plant) (HORVS [11]; [14]): 10% | activity VIOAR IU soil (VIOAR; [15]): 0% | activity V18 VIOAR IU/EC73 soil (VIOAR; [16]): 0% | activity HORVS (crop plant) (HORVS [12]; PE application): 20% | activity HORVS (crop plant) (HORVS [12]; incorporation into the soil): 60%
